Results taken from US11786484B2, “Xanthohumol solubilizate” (Aquanova AG, priority 2018, dated 2023).

Columns and labels:
[1] = test system: total antioxidant capacity (TAC); assay: Adjuvant induced arthritis in rats: total antioxidant capacity (TAC) in serum; type: in vivo, Wistar rats; settings: serum of arthritic rats (n=8), once daily for 21 days, mean ± SEM
Description: (§1) Anti-inflammatory markers and antioxidant capacity were determined. Female Wistar rats with a body weight between 150 and 200 g were exposed to adjuvant induced arthritis according to Pearson et al. (1956). At day 0, the animals were administered 0.1 ml of Freund's Adjuvant (FCA) in the right hind paw, by subplantar injection. The animals were randomly divided into 12 groups of 8 animals each.
(§2) All extracts or solubilizates were administered orally once daily from day 0 through day 21 following the vaccination with the adjuvant. After day 21, the animals were killed and serum samples were prepared and stored at −80° C. Measurements were made of myeloperoxidase (MPO), C-reactive protein (CRP), total antioxidant capacity (TAC), and thiobarbituratic acid reactive substances (TBARS).
(§3) Oxidative stress is one of the major factors contributing to joint destruction in rheumatoid arthritis (RA). An increase in the production of reactive oxygen species (ROS) leads to a reduced supply of endogenous antioxidants and ultimately results in the destruction of cells. The neutrophil granulocytes released in the rheumatoid joint produce free oxygen radicals which cause increased formation of lipid peroxides manifesting in an increase in serum TBARS. […]

[2] = test system: thiobarbituric acid reactive substances TBARS; assay: Adjuvant induced arthritis in rats: TBARS in serum; type: in vivo, Wistar rats; settings: serum of arthritic rats (n=8), once daily for 21 days, mean ± SEM
Description: as §1, §2, §3

[3] = test system: WTD fed mice; assay: Intraperitoneal glucose tolerance test (ipGTT) in WTD mice; type: in vivo, mice of the strain C57BL/6; settings: 2.5 mg/kg daily, after seven weeks
Description: (§4) The medical faculty of Friedrich-Alexander University Erlangen Nürnberg (FAU) conducted studies on the effects of xanthohumol on body weight. A dose of 2.5 mg/kg body weight of xanthohumol was administered daily. For this purpose, a solubilizate of the present Applicant was used. It was prepared from 100 g “Xantho-Flav Pure”, 150 g of 96% ethanol, and 750 g of polysorbate 80. For adjusting the concentration to 0.375 mg/ml, the solubilizate was diluted with double-distilled water (“ddH2O”). The corresponding data are marked by “s-XN” in the accompanying figures.
(§5) For comparison, similar experiments were conducted with the same dose of native xanthohumol. For dissolving the native xanthohumol, an aqueous solution of methylhydroxypropyl cellulose (MHPC, 0.2%, Methocel E4M Premium CR, Hypromellose 2910 USP, Fragron Inc., Minnesota, USA) was used. The corresponding data are marked by “n-XN”. […]
After seven weeks of administration of the solubilizate or of native xanthohumol, an intraperitoneal glucose tolerance test (ipGTT) was carried out. […] The concentration of glucose in the blood was measured in samples that were taken from the tail vein prior to glucose administration (fasting glucose) as well as 30, 60, 80, and 120 minutes thereafter. […]

[4] = test system: WTD fed mice; assay: Liver weight, hepatic triglyceride level and histology (steatosis) in WTD mice; type: in vivo, mice of the strain C57BL/6; settings: 2.5 mg/kg daily, 8 weeks
Description: as §4, §5
To quantify liver lipids, the latter were extracted and the amount of triglycerides (“hepatic triglyceride level”) was determined using a “GPO-triglyceride kit” (Sigma, Deisenhofen, Germany), as described in Wobser et al.: “Lipid accumulation in hepatocytes induces fibrogenic activation of hepatic stellate cells”, Cell Res 2009; 19:996-1005. […]

[5] = test system: alpha-smooth muscle actin (α-SMA); assay: Hepatic expression of alpha-smooth muscle actin in WTD mice (qPCR, immunohistochemistry); type: in vivo, mice of the strain C57BL/6; settings: 2.5 mg/kg daily, 8 weeks
Description: (§6) Male mice of the strain C57BL/6 at an age of 8 weeks either received usual diet or were fed according to the “Western type diet” consisting of 15% pork lard, 15% beef tallow, 4% palmitic acid, 4% stearic acid, 0.2% cholesterol, and 30% sucrose. The control group (CTRL), which received the usual diet, was given an aqueous solution of methylhydroxypropyl cellulose (MHPC, 0.2%, Methocel™ E4M prem) (“vehicle” VH) as a therapy, as was the case with the “Western type diet” group (“WTD”).
(§7) Other groups received the xanthohumol solubilizate (“s-XN”) of the present Applicant or native xanthohumol (“n-XN”) in addition to the WTD. The therapy was conducted over 8 weeks.
(§8) RNA isolation from liver tissue, reverse transcription and quantitative real-time polymerase chain reaction (PCR) analysis were carried out using the “LightCycler” technology (Roche) and specific tests for primers, as described in Hellebrand et al.: “Promoter hypermethylation is causing functional relevant downregulation of methylthioadenosine phosphorylase (MTAP) expression in hepatocellular carcinoma”, Carcinogenesis 2006; 27:64-72.
The α-SMA protein is an established marker of activated hepatic stellate cells (HSC) which trigger liver cirrhosis. An immunohistochemical analysis of the α-SMA protein confirmed that WTD causes significant activation of HSC (FIG. 4B).

[6] = test system: type 1 collagen (COL1A1); assay: Hepatic expression of type 1 collagen in WTD mice; type: in vivo, mice of the strain C57BL/6; settings: 2.5 mg/kg daily, 8 weeks
Description: as §6, §7, §8
Type 1 collagen (COL1A1) is the most important extracellular matrix protein in liver fibrosis, both quantitatively and qualitatively.

[7] = test system: C-reactive protein (CRP); assay: Adjuvant induced arthritis in rats: serum CRP; type: in vivo, Wistar rats; settings: arthritic rats, 5 mg/kg orally once daily day 0 through day 21; diclofenac 3 mg/kg as reference
Description: as §1, §2

[8] = test system: myeloperoxidase (MPO); assay: Adjuvant induced arthritis in rats: serum MPO; type: in vivo, Wistar rats; settings: arthritic rats, 5 mg/kg orally once daily day 0 through day 21; diclofenac 3 mg/kg as reference
Description: as §1, §2

Which results are given for `O=C(O)Cc1ccccc1Nc1c(Cl)cccc1Cl` [Diclofenac, diclofenac]?
TAC [1]: 82.08 ± 2.96 nmol/µL; TBARS [2]: 7.93 ± 0.84 nmol/L

With `COc1cc(O)c(CC=C(C)C)c(O)c1C(=O)/C=C/c1ccc(O)cc1` [native xanthohumol, xanthohumol] as the compound, how does the fasting glucose values ([3]; 12 hours of fasting) read?
The fasting glucose values was “did not bring about this effect”.

And the glucose tolerance ([3]; ipGTT 3 mg glucose per gram body weight)?
The glucose tolerance was “did not bring about this effect”.

What about the “steatosis (liver appearance, histological examinations)” value [4] of the same compound?
The value was “accumulation of fat in the liver (steatosis)”.

And the “WTD-induced expression of α-SMA” value [5]?
The value was “hardly any effects”.

And the “WTD-induced expression of type 1 collagen” value [6]?
Its value is “hardly any effects”.

What about the “effect on CRP serum level, in words” value [7] of the same compound?
Its value is “effect comparable to that of diclofenac”.

And the “effect on the serum concentration of MPO, in words” value [8]?
Its value is “only a slight effect”.

And the TAC [1]?
The TAC was 63.71 ± 1.02 nmol/µL.

What about the TBARS [2] of the same compound?
The TBARS was 11.42 ± 1.16 nmol/L.
